# Measurements published in ChEMBL document CHEMBL1201862, “PubChem BioAssay data set” (2004).
#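 Protocol summary: plate cells (96-well), add compound at 5 concentrations, incubate 48 h, interpolate endpoints linearly. The concentration for 50% growth inhibition is given as GI50.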 Active and inactive are the calls of the source. Cut-off read from the data, not from the text of the source: active = GI50 up to about 1.1 µM and inactive = higher.
# Assays:
# Experiment in all cases: NCI tumour cell line growth inhibition, 48 h
# M14 = test system: M14
# NCI-H23 = test system: NCI-H23
# PC-3 = test system: PC-3
# HT-29 = test system: HT-29
# BT-549 = test system: BT-549
# OVCAR-4 = test system: OVCAR-4
# RXF 393 = test system: RXF 393
# HOP-62 = test system: HOP-62
# U-251 = test system: U-251
# NCI-H226 = test system: NCI-H226
# MDA-MB-231 = test system: MDA-MB-231
# CCRF-CEM = test system: CCRF-CEM
# UACC-62 = test system: UACC-62
# SF-268 = test system: SF-268
# HCC 2998 = test system: HCC 2998
# EKVX = test system: EKVX
# SK-MEL-5 = test system: SK-MEL-5
# 786-0 = test system: 786-0
# HCT-15 = test system: HCT-15
# Hs-578T = test system: Hs-578T
# IGROV-1 = test system: IGROV-1
# NCI-H460 = test system: NCI-H460
# MCF7 = test system: MCF7
# SF-295 = test system: SF-295
# DU-145 = test system: DU-145
# SK-MEL-28 = test system: SK-MEL-28
# A498 = test system: A498
# NCI-H522 = test system: NCI-H522
# HCT-116 = test system: HCT-116
# MOLT-4 = test system: MOLT-4
# SF-539 = test system: SF-539
# T47D = test system: T47D
# OVCAR-5 = test system: OVCAR-5
# A549 = test system: A549
# UACC-257 = test system: UACC-257
# KM12 = test system: KM12
# K562 = test system: K562
# CAKI-1 = test system: CAKI-1
# RPMI-8226 = test system: RPMI-8226
# SN12C = test system: SN12C
# LOX IMVI = test system: LOX IMVI
# HL-60 = test system: HL-60
# SW-620 = test system: SW-620
# ACHN = test system: ACHN
# HOP-92 = test system: HOP-92
# SNB-19 = test system: SNB-19
# MDA-MB-435 = test system: MDA-MB-435
# MDA-N = test system: MDA-N
# Malme-3M = test system: Malme-3M
# TK-10 = test system: TK-10
# OVCAR-8 = test system: OVCAR-8
# NCI/ADR-RES = test system: NCI/ADR-RES
# COLO 205 = test system: COLO 205
# SR = test system: SR
# UO-31 = test system: UO-31
# OVCAR-3 = test system: OVCAR-3
# SK-MEL-2 = test system: SK-MEL-2
# SK-OV-3 = test system: SK-OV-3
# SNB-75 = test system: SNB-75
smiles,measurement,setting,value
CN(C)c1c(Cl)c(=O)oc2c1ccc1nc(-c3ccccc3)sc12,GI50,M14,> 100 µM (inactive)
same,GI50,NCI-H23,> 100 µM (inactive)
same,GI50,PC-3,> 100 µM (inactive)
same,GI50,HT-29,> 100 µM (inactive)
same,GI50,BT-549,> 100 µM (inactive)
same,GI50,OVCAR-4,> 100 µM (inactive)
same,GI50,RXF 393,55.3 µM (inactive)
same,GI50,HOP-62,98.9 µM (inactive)
same,GI50,U-251,> 100 µM (inactive)
same,GI50,NCI-H226,> 100 µM (inactive)
same,GI50,MDA-MB-231,> 100 µM (inactive)
same,GI50,CCRF-CEM,> 100 µM (inactive)
same,GI50,UACC-62,64.6 µM (inactive)
same,GI50,SF-268,> 100 µM (inactive)
same,GI50,HCC 2998,> 100 µM (inactive)
same,GI50,EKVX,> 100 µM (inactive)
same,GI50,SK-MEL-5,> 100 µM (inactive)
same,GI50,786-0,> 100 µM (inactive)
same,GI50,HCT-15,> 100 µM
same,GI50,Hs-578T,> 100 µM (inactive)
same,GI50,IGROV-1,> 100 µM (inactive)
same,GI50,NCI-H460,> 100 µM (inactive)
same,GI50,MCF7,57.7 µM (inactive)
same,GI50,SF-295,> 100 µM (inactive)
same,GI50,DU-145,> 100 µM (inactive)
same,GI50,SK-MEL-28,> 100 µM (inactive)
same,GI50,A498,> 100 µM (inactive)
same,GI50,NCI-H522,> 100 µM (inactive)
same,GI50,HCT-116,> 100 µM (inactive)
same,GI50,MOLT-4,> 100 µM (inactive)
same,GI50,SF-539,> 100 µM (inactive)
same,GI50,T47D,> 100 µM (inactive)
same,GI50,OVCAR-5,> 100 µM (inactive)
same,GI50,A549,> 100 µM (inactive)
same,GI50,UACC-257,> 100 µM (inactive)
same,GI50,KM12,> 100 µM (inactive)
same,GI50,K562,> 100 µM (inactive)
same,GI50,CAKI-1,> 100 µM (inactive)
same,GI50,RPMI-8226,> 100 µM (inactive)
same,GI50,SN12C,> 100 µM (inactive)
same,GI50,LOX IMVI,> 100 µM (inactive)
same,GI50,HL-60,> 100 µM (inactive)
same,GI50,SW-620,> 100 µM (inactive)
same,GI50,ACHN,> 100 µM (inactive)
same,GI50,HOP-92,> 100 µM (inactive)
same,GI50,SNB-19,> 100 µM (inactive)
same,GI50,MDA-MB-435,> 100 µM (inactive)
same,GI50,MDA-N,> 100 µM (inactive)
same,GI50,Malme-3M,31.5 µM (inactive)
same,GI50,TK-10,> 100 µM (inactive)
same,GI50,OVCAR-8,> 100 µM (inactive)
same,GI50,NCI/ADR-RES,> 100 µM (inactive)
same,GI50,COLO 205,> 100 µM (inactive)
same,GI50,SR,> 100 µM (inactive)
same,GI50,UO-31,> 100 µM (inactive)
same,GI50,OVCAR-3,> 100 µM (inactive)
Cc1cn(C2CC(O)C(Cn3nncc3Cn3nc(Br)c(=O)[nH]c3=O)O2)c(=O)[nH]c1=O (configuration not stated),GI50,M14,> 100 µM (inactive)
same,GI50,NCI-H23,> 100 µM (inactive)
same,GI50,SK-MEL-2,> 100 µM (inactive)
same,GI50,PC-3,> 100 µM (inactive)
same,GI50,BT-549,> 100 µM (inactive)
same,GI50,OVCAR-4,> 100 µM (inactive)
same,GI50,RXF 393,> 100 µM (inactive)
same,GI50,HOP-62,> 100 µM (inactive)
same,GI50,U-251,> 100 µM (inactive)
same,GI50,NCI-H226,> 100 µM (inactive)
same,GI50,MDA-MB-231,> 100 µM (inactive)
same,GI50,CCRF-CEM,> 100 µM (inactive)
same,GI50,UACC-62,> 100 µM (inactive)
same,GI50,SF-268,> 100 µM (inactive)
same,GI50,HCC 2998,> 100 µM (inactive)
same,GI50,EKVX,> 100 µM (inactive)
same,GI50,SK-MEL-5,> 100 µM (inactive)
same,GI50,786-0,> 100 µM (inactive)
same,GI50,HCT-15,> 100 µM
same,GI50,Hs-578T,> 100 µM (inactive)
same,GI50,IGROV-1,> 100 µM (inactive)
same,GI50,MCF7,> 100 µM (inactive)
same,GI50,SF-295,> 100 µM (inactive)
same,GI50,DU-145,> 100 µM (inactive)
same,GI50,SK-MEL-28,> 100 µM (inactive)
same,GI50,A498,> 100 µM (inactive)
same,GI50,NCI-H522,> 100 µM (inactive)
same,GI50,HCT-116,> 100 µM (inactive)
same,GI50,MOLT-4,> 100 µM (inactive)
same,GI50,SF-539,> 100 µM (inactive)
same,GI50,T47D,> 100 µM (inactive)
same,GI50,OVCAR-5,> 100 µM (inactive)
same,GI50,A549,> 100 µM (inactive)
same,GI50,UACC-257,> 100 µM (inactive)
same,GI50,KM12,> 100 µM (inactive)
same,GI50,CAKI-1,> 100 µM (inactive)
same,GI50,RPMI-8226,> 100 µM (inactive)
same,GI50,SN12C,> 100 µM (inactive)
same,GI50,LOX IMVI,> 100 µM (inactive)
same,GI50,SW-620,> 100 µM (inactive)
same,GI50,ACHN,> 100 µM (inactive)
same,GI50,HOP-92,> 100 µM (inactive)
same,GI50,SK-OV-3,> 100 µM (inactive)
same,GI50,SNB-19,> 100 µM (inactive)
same,GI50,MDA-MB-435,> 100 µM (inactive)
same,GI50,MDA-N,> 100 µM (inactive)
same,GI50,Malme-3M,> 100 µM (inactive)
same,GI50,TK-10,> 100 µM (inactive)
same,GI50,OVCAR-8,> 100 µM (inactive)
same,GI50,NCI/ADR-RES,> 100 µM (inactive)
same,GI50,COLO 205,> 100 µM (inactive)
same,GI50,SR,> 100 µM (inactive)
same,GI50,UO-31,> 100 µM (inactive)
same,GI50,OVCAR-3,> 100 µM (inactive)
COc1ccc(-n2c(SC(CN3CCOCC3)CN3CCCC3=O)nc3ccccc3c2=O)cc1 (configuration not stated),GI50,M14,> 100 µM (inactive)
same,GI50,NCI-H23,96.4 µM (inactive)
same,GI50,SK-MEL-2,> 100 µM (inactive)
same,GI50,PC-3,> 100 µM (inactive)
same,GI50,HT-29,> 100 µM (inactive)
same,GI50,BT-549,> 100 µM (inactive)
same,GI50,OVCAR-4,98.6 µM (inactive)
same,GI50,RXF 393,> 100 µM (inactive)
same,GI50,U-251,> 100 µM (inactive)
same,GI50,SNB-75,70.8 µM (inactive)
same,GI50,NCI-H226,40.8 µM (inactive)
same,GI50,MDA-MB-231,> 100 µM (inactive)
same,GI50,CCRF-CEM,67.5 µM (inactive)
same,GI50,UACC-62,> 100 µM (inactive)
same,GI50,SF-268,> 100 µM (inactive)
same,GI50,HCC 2998,> 100 µM (inactive)
same,GI50,EKVX,> 100 µM (inactive)
same,GI50,SK-MEL-5,> 100 µM (inactive)
same,GI50,786-0,> 100 µM (inactive)
same,GI50,HCT-15,> 100 µM
same,GI50,Hs-578T,> 100 µM (inactive)
same,GI50,IGROV-1,> 100 µM (inactive)
same,GI50,NCI-H460,> 100 µM (inactive)
same,GI50,MCF7,> 100 µM (inactive)
same,GI50,SF-295,> 100 µM (inactive)
same,GI50,DU-145,> 100 µM (inactive)
same,GI50,SK-MEL-28,82.6 µM (inactive)
same,GI50,A498,> 100 µM (inactive)
same,GI50,NCI-H522,> 100 µM (inactive)
same,GI50,HCT-116,> 100 µM (inactive)
same,GI50,MOLT-4,90.8 µM (inactive)
same,GI50,SF-539,58.7 µM (inactive)
same,GI50,T47D,> 100 µM (inactive)
same,GI50,OVCAR-5,> 100 µM (inactive)
same,GI50,A549,87.7 µM (inactive)
same,GI50,UACC-257,> 100 µM (inactive)
same,GI50,KM12,> 100 µM (inactive)
same,GI50,K562,> 100 µM (inactive)
same,GI50,CAKI-1,43.7 µM (inactive)
same,GI50,RPMI-8226,> 100 µM (inactive)
same,GI50,SN12C,> 100 µM (inactive)
same,GI50,HL-60,85.9 µM (inactive)
same,GI50,SW-620,> 100 µM (inactive)
same,GI50,ACHN,46 µM (inactive)
same,GI50,HOP-92,> 100 µM (inactive)
same,GI50,SK-OV-3,> 100 µM (inactive)
same,GI50,SNB-19,> 100 µM (inactive)
same,GI50,MDA-MB-435,> 100 µM (inactive)
same,GI50,MDA-N,> 100 µM (inactive)
same,GI50,Malme-3M,91.2 µM (inactive)
same,GI50,TK-10,95.1 µM (inactive)
same,GI50,OVCAR-8,> 100 µM (inactive)
same,GI50,NCI/ADR-RES,> 100 µM (inactive)
same,GI50,COLO 205,> 100 µM (inactive)
same,GI50,SR,> 100 µM (inactive)
same,GI50,UO-31,35.6 µM (inactive)
same,GI50,OVCAR-3,> 100 µM (inactive)
